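Following 48 hours of exposure in 96-well plates, responses at five concentrations were used to interpolate endpoints linearly. Definition used: TGI = concentration required for complete inhibition of growth.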
Columns and labels:
Experiment in all cases: NCI anticancer screen, dose series, 48 h
RXF 393 renal = tested on: RXF 393 renal
EKVX NSCLC = tested on: EKVX NSCLC
UO-31 renal = tested on: UO-31 renal
KM12 colon = tested on: KM12 colon
COLO 205 colon = tested on: COLO 205 colon
SF-268 CNS = tested on: SF-268 CNS
CAKI-1 renal = tested on: CAKI-1 renal
MOLT-4 leukemia = tested on: MOLT-4 leukemia
RPMI-8226 leukemia = tested on: RPMI-8226 leukemia
CCRF-CEM leukemia = tested on: CCRF-CEM leukemia
A549 NSCLC = tested on: A549 NSCLC
MDA-MB-231 breast = tested on: MDA-MB-231 breast
OVCAR-8 ovarian = tested on: OVCAR-8 ovarian
TK-10 renal = tested on: TK-10 renal
HS 578T breast = tested on: HS 578T breast
U251 CNS = tested on: U251 CNS
NCI-H460 lung = tested on: NCI-H460 lung
K-562 leukemia = tested on: K-562 leukemia
SF-539 CNS = tested on: SF-539 CNS
IGROV1 ovarian = tested on: IGROV1 ovarian
HCT-116 colon = tested on: HCT-116 colon
SK-MEL-28 melanoma = tested on: SK-MEL-28 melanoma
HL-60(TB) leukemia = tested on: HL-60(TB) leukemia
ACHN renal = tested on: ACHN renal
SNB-19 CNS = tested on: SNB-19 CNS
OVCAR-3 ovarian = tested on: OVCAR-3 ovarian
SF-295 CNS = tested on: SF-295 CNS
PC-3 prostate = tested on: PC-3 prostate
MDA-N = tested on: MDA-N
SW-620 colon = tested on: SW-620 colon
SK-OV-3 ovarian = tested on: SK-OV-3 ovarian
OVCAR-4 ovarian = tested on: OVCAR-4 ovarian
MDA-MB-435 = tested on: MDA-MB-435
SK-MEL-2 melanoma = tested on: SK-MEL-2 melanoma
HOP-62 NSCLC = tested on: HOP-62 NSCLC
SK-MEL-5 melanoma = tested on: SK-MEL-5 melanoma
UACC-257 melanoma = tested on: UACC-257 melanoma
NCI-H226 lung = tested on: NCI-H226 lung
A498 renal = tested on: A498 renal
M14 melanoma = tested on: M14 melanoma
786-0 renal = tested on: 786-0 renal
SN12C renal = tested on: SN12C renal
BT-549 breast = tested on: BT-549 breast
MCF7 breast = tested on: MCF7 breast
NCI/ADR-RES ovarian = tested on: NCI/ADR-RES ovarian
LOX IMVI melanoma = tested on: LOX IMVI melanoma
T-47D breast = tested on: T-47D breast
HCT-15 colon = tested on: HCT-15 colon
NCI-H522 lung = tested on: NCI-H522 lung
UACC-62 melanoma = tested on: UACC-62 melanoma
OVCAR-5 ovarian = tested on: OVCAR-5 ovarian
HCC-2998 colon = tested on: HCC-2998 colon
DU-145 prostate = tested on: DU-145 prostate
MALME-3M melanoma = tested on: MALME-3M melanoma
SNB-75 CNS = tested on: SNB-75 CNS
HOP-92 NSCLC = tested on: HOP-92 NSCLC
HT29 colon = tested on: HT29 colon
NCI-H23 lung = tested on: NCI-H23 lung

Measured: TGI

COc1ccc(/C=C/c2ccnc3ccccc23)c(OC)c1
6.91 µM: HL-60(TB) leukemia
5.09 µM: MDA-MB-435
not listed: HOP-92 NSCLC | HT29 colon | NCI-H23 lung
> 10 µM: all other assays above

COc1ccc(C(=C(Cl)c2ccccc2)c2ccc(OC)cc2)cc1
not listed: HCC-2998 colon | SNB-75 CNS
> 100 µM: all other assays above

Reference: PubChem BioAssay (NCI)
